Measurements: the NIST ThermoML archive (doi:10.1016/j.fluid.2014.06.024)

Experiment: molar heat capacity at constant pressure; xn = mol fraction of the nth substance listed
Settings: 101 kPa, Liquid, Small sample (50 mg) DSC

C1CCOCC1 [tetrahydropyran] + Cc1ccccc1
molar heat capacity at constant pressure [J/K/mol]
Settings	298.15 K	303.15 K	308.15 K
x1 = 0.0937	157	158.5	160.08
x1 = 0.1369	156.86	158.39	159.99
x1 = 0.1932	156.64	158.18	159.81
x1 = 0.2308	156.46	158.01	159.65
x1 = 0.2894	156.15	157.71	159.37
x1 = 0.3187	155.98	157.54	159.22
x1 = 0.3507	155.79	157.35	159.04
x1 = 0.3916	155.52	157.09	158.79
x1 = 0.4206	155.32	156.9	158.61
x1 = 0.4618	155.02	156.61	158.34
x1 = 0.4906	154.81	156.4	158.14
x1 = 0.5137	154.63	156.23	157.98
x1 = 0.5517	154.32	155.94	157.71
x1 = 0.5907	154	155.62	157.42
x1 = 0.6208	153.74	155.38	157.19
x1 = 0.6623	153.37	155.02	156.86
x1 = 0.6987	153.03	154.69	156.55
x1 = 0.7135	152.89	154.56	156.42
x1 = 0.751	152.52	154.2	156.08
x1 = 0.7917	152.1	153.79	155.68
x1 = 0.8246	151.75	153.44	155.34
x1 = 0.8516	151.45	153.14	155.05
x1 = 0.8914	150.99	152.67	154.58
x1 = 0.9123	150.74	152.41	154.32

C1CCOCC1 [tetrahydropyran] + c1ccccc1
molar heat capacity at constant pressure [J/K/mol]
Settings	298.15 K	303.15 K	308.15 K
x1 = 0.0859	136.89	138.21	139.54
x1 = 0.1279	137.71	139.06	140.44
x1 = 0.1598	138.32	139.7	141.1
x1 = 0.1982	139.05	140.45	141.88
x1 = 0.2254	139.56	140.97	142.43
x1 = 0.2657	140.3	141.72	143.21
x1 = 0.3017	140.94	142.38	143.89
x1 = 0.3509	141.8	143.26	144.8
x1 = 0.3898	142.45	143.93	145.5
x1 = 0.4176	142.91	144.39	145.99
x1 = 0.4428	143.31	144.81	146.42
x1 = 0.4987	144.17	145.7	147.36
x1 = 0.5234	144.54	146.08	147.76
x1 = 0.5592	145.05	146.61	148.32
x1 = 0.5983	145.58	147.17	148.91
x1 = 0.6132	145.78	147.37	149.13
x1 = 0.6478	146.23	147.84	149.63
x1 = 0.6876	146.71	148.35	150.17
x1 = 0.7231	147.12	148.78	150.63
x1 = 0.7623	147.55	149.22	151.1
x1 = 0.7905	147.85	149.53	151.42
x1 = 0.8217	148.15	149.84	151.75
x1 = 0.8507	148.43	150.12	152.04
x1 = 0.9003	148.86	150.54	152.47

Cc1ccccc1C [1,2-dimethylbenzene] + C1CCOCC1
molar heat capacity at constant pressure [J/K/mol]
Settings	298.15 K	303.15 K	308.15 K
x2 = 0.0918	184.41	186	187.56
x2 = 0.1317	183.03	184.64	186.23
x2 = 0.1765	181.48	183.1	184.72
x2 = 0.2108	180.29	181.92	183.55
x2 = 0.2543	178.76	180.4	182.06
x2 = 0.2876	177.59	179.23	180.91
x2 = 0.3105	176.77	178.42	180.11
x2 = 0.3651	174.81	176.47	178.18
x2 = 0.4187	172.86	174.53	176.26
x2 = 0.4498	171.71	173.38	175.13
x2 = 0.491	170.18	171.85	173.62
x2 = 0.5217	169.03	170.7	172.47
x2 = 0.5518	167.88	169.56	171.34
x2 = 0.5871	166.53	168.2	170
x2 = 0.6218	165.19	166.86	168.66
x2 = 0.6617	163.62	165.29	167.1
x2 = 0.6901	162.5	164.16	165.98
x2 = 0.7219	161.23	162.89	164.71
x2 = 0.7561	159.85	161.5	163.33
x2 = 0.7918	158.39	160.04	161.87
x2 = 0.8231	157.11	158.75	160.58
x2 = 0.8651	155.36	156.99	158.83
x2 = 0.8902	154.31	155.93	157.78
x2 = 0.9234	152.9	154.52	156.37
